Laboratory results reported in PubChem BioAssay AID493139 (Sanford-Burnham Center for Chemical Genomics, 2011).
Several values for one entry are separate records, joined by “and”; a condition that tells them apart may be missing. Equal values may be shown once. Activity calls are given as the source filed them. No rule for the calls is given here.

target: Alkaline phosphatase, germ cell type (Homo sapiens) (UniProt P10696); assay: placental-like alkaline phosphatase activators or inhibitors – biochemical, human placental-like ALPPL2 isozyme, selectivity assay for mouse IAP activator project, SAR follow-up (AID 493139); conditions: purified human placental-like alkaline phosphatase, enzymatic activity
Sequence (P10696 whole entry, looked up): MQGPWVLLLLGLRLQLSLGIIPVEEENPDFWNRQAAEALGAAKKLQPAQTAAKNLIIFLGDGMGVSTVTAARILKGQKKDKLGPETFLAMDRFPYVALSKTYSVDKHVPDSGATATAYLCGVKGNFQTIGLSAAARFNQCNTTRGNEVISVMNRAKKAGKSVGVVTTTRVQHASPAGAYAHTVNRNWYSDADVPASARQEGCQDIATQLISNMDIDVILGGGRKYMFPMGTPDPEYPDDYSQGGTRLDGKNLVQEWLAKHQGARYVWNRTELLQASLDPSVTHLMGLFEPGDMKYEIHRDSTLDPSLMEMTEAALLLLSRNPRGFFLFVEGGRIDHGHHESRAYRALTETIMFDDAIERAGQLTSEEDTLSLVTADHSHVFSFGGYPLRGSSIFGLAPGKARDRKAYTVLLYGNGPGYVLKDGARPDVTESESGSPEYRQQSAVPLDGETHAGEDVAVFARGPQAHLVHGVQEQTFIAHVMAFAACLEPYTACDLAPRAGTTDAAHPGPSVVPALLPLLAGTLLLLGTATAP

Row | Compound | IC50 (inhibition of PLAP activity)
1 | O=C(N/N=C/c1ccccc1F)c1cc(O)c(O)c(O)c1 | > 100 µM (inactive)
2 | COc1cc(C(=O)NNC(=O)c2n[nH]c3ccccc23)cc(OC)c1OC | 21.9 µM
3 | CCOc1cccc(NC(=O)CSc2sc3c(O)cc(=O)[nH]c3c2C#N)c1 | > 100 µM (inactive)
4 | N#Cc1c(SCC(=O)Nc2ccccc2C(F)(F)F)sc2c(O)cc(=O)[nH]c12 | > 100 µM (inactive)
5 | COc1ccc(OC)c(NC(=O)CSc2sc3c(O)cc(=O)[nH]c3c2C#N)c1 | > 100 µM (inactive)
6 | COc1ccccc1CNC(=O)CCNS(=O)(=O)c1ccc2[nH]c(=O)oc2c1 | > 100 µM (inactive)
7 | CC(C(=O)Nc1ccccc1C(=O)O)N1C(=O)/C(=C\c2ccco2)SC1=S (stereo unspecified) | > 100 µM (inactive)
8 | COc1ccc(NC(=O)C(CC(C)C)NS(=O)(=O)c2ccc3[nH]c(=O)oc3c2)cc1 (stereo unspecified) | > 100 µM (inactive)
9 | Cc1ccc(NC(=O)CCNS(=O)(=O)c2ccc3[nH]c(=O)oc3c2)cc1N(C)C | > 100 µM (inactive)
10 | O=C(N/N=C/c1ccc(F)cc1)c1cc(O)c(O)c(O)c1 | > 100 µM (inactive)
11 | FC(F)(F)c1cccc(NC(=S)NCCC(c2ccccc2)c2ccccc2)c1 | 63.5 µM
12 | O=C1/C(=C/c2ccco2)SC(=S)N1C1CCS(=O)(=O)C1 (stereo unspecified) | 17.9 µM
13 | O=C(CCNS(=O)(=O)c1ccc2[nH]c(=O)oc2c1)Nc1ccccc1 | > 100 µM (inactive)
14 | Cc1ccc(NC(=O)CCNS(=O)(=O)c2ccc3[nH]c(=O)oc3c2)c(C)c1 | > 100 µM (inactive)
15 | C/C(=N\NC(=O)c1cc(O)c(O)c(O)c1)c1ccncc1 | > 100 µM (inactive)
16 | CCOc1ccccc1CNC(=O)CCNS(=O)(=O)c1ccc2[nH]c(=O)oc2c1 | > 100 µM (inactive)
17 | O=C(CCN1C(=O)/C(=C\c2ccco2)SC1=S)Nc1ccc(C(=O)O)c(O)c1 | > 100 µM (inactive)
18 | CC(C(=O)Nc1ccc(C(=O)O)c(O)c1)N1C(=O)/C(=C\c2ccco2)SC1=S (stereo unspecified) | 32.6 µM
19 | CCOC(=O)N1CCN(S(=O)(=O)c2ccc3[nH]c(=O)oc3c2)CC1 | > 100 µM (inactive)

Row | Compound | IC50 (inhibition of PLAP activity)
20 | O=C(CN1C(=O)/C(=C\c2ccco2)SC1=S)Nc1ccc(O)cc1C(=O)O | > 100 µM (inactive)
21 | O=C(NN=Cc1cccnc1)c1cc(O)c(O)c(O)c1 | > 100 µM (inactive)
22 | O=C(CN1C(=O)/C(=C\c2ccco2)SC1=S)Nc1cccc(C(=O)O)c1 | > 100 µM (inactive)
23 | Cc1cc(=O)oc2cc(NC(=S)NCCC(c3ccccc3)c3ccccc3)ccc12 | > 100 µM (inactive)
24 | O=C(CN1C(=O)/C(=C/c2ccco2)SC1=S)Nc1ccc(C(=O)O)c(O)c1 | 78.4 µM
25 | Cc1cc(NC(=O)CSc2sc3c(O)cc(=O)[nH]c3c2C#N)ccc1Br | > 100 µM (inactive)
26 | COc1cccc(NC(=O)CN(C)S(=O)(=O)c2ccc3[nH]c(=O)oc3c2)c1 | > 100 µM (inactive)
27 | S=C(NCCC(c1ccccc1)c1ccccc1)Nc1ccc(Cl)cc1Cl | 72.1 µM
28 | Cc1ccc(NC(=O)CCNS(=O)(=O)c2ccc3[nH]c(=O)oc3c2)cc1F | > 100 µM (inactive)
29 | O=C(N/N=C/c1ccsc1)c1cc(O)c(O)c(O)c1 | > 100 µM (inactive)
30 | O=C(CN1C(=O)/C(=C/c2ccco2)SC1=S)Nc1ccc(O)c(C(=O)O)c1 | 27 µM
31 | Cc1ccc(NC(=O)CCNS(=O)(=O)c2ccc3[nH]c(=O)oc3c2)cc1 | > 100 µM (inactive)
32 | CC(C)N1CCC(=NNC(=O)c2cc(O)c(O)c(O)c2)CC1 | > 100 µM (inactive) and 61.4 µM
33 | COc1ccccc1NC(=O)CSc1sc2c(O)cc(=O)[nH]c2c1C#N | > 100 µM (inactive)
34 | CCOC(=O)NC(=O)CSc1sc2c(O)cc(=O)[nH]c2c1C#N | > 100 µM (inactive)
35 | Cc1ccc(/C=N/NC(=O)c2cc(O)c(O)c(O)c2)cc1 | > 100 µM (inactive)
36 | O=C(CCN1C(=O)/C(=C/c2ccco2)SC1=S)Nc1ccc(C(=O)O)c(O)c1 | > 100 µM (inactive)
37 | N#Cc1c(SCC(=O)Nc2ccc(C(F)(F)F)cc2)sc2c(O)cc(=O)[nH]c12 | > 100 µM (inactive)
38 | CC(C(=O)Nc1cccc(C(=O)O)c1)N1C(=O)/C(=C\c2ccco2)SC1=S (stereo unspecified) | > 100 µM (inactive)

Row | Compound | IC50 (inhibition of PLAP activity)
39 | O=C(CCCN1C(=O)/C(=C\c2ccco2)SC1=S)Nc1ccc(O)cc1C(=O)O | > 100 µM (inactive)
40 | O=C(c1ccco1)N1CCN(S(=O)(=O)c2ccc3[nH]c(=O)oc3c2)CC1 | > 100 µM (inactive)
41 | Cc1ccc(C)c(NC(=O)CCNS(=O)(=O)c2ccc3[nH]c(=O)oc3c2)c1 | > 100 µM (inactive)
42 | COc1ccc(OC)c(NC(=O)CCNS(=O)(=O)c2ccc3[nH]c(=O)oc3c2)c1 | > 100 µM (inactive)
43 | N#Cc1c(SCC(=O)NCc2ccc3c(c2)OCO3)sc2c(O)cc(=O)[nH]c12 | > 100 µM (inactive)
44 | CC(C)C(C(=O)NC1CCS(=O)(=O)C1)N1C(=O)/C(=C\c2ccco2)SC1=S (stereo unspecified) | > 100 µM (inactive)
45 | CC(C)NC(=O)CSc1sc2c(O)cc(=O)[nH]c2c1C#N | > 100 µM (inactive)
46 | O=C(CN1C(=O)/C(=C/c2ccco2)SC1=S)NC1CCS(=O)(=O)C1 (stereo unspecified) | > 100 µM (inactive)
47 | N#Cc1cccc(NC(=O)CSc2sc3c(O)cc(=O)[nH]c3c2C#N)c1 | > 100 µM (inactive)
48 | O=C(C1CCN(S(=O)(=O)c2ccc3[nH]c(=O)oc3c2)CC1)N1CC=C(c2ccccc2)CC1 | > 100 µM (inactive)
49 | O=C(N/N=C/c1ccco1)c1cc(O)c(O)c(O)c1 | > 100 µM (inactive)
50 | COc1ccc(Cl)cc1NC(=O)CSc1sc2c(O)cc(=O)[nH]c2c1C#N | > 100 µM (inactive)
51 | COc1ccc(NC(=O)CCNS(=O)(=O)c2ccc3[nH]c(=O)oc3c2)cc1Cl | > 100 µM (inactive)
52 | CCN(C(=O)CN1C(=O)/C(=C\c2ccco2)SC1=S)C1CCS(=O)(=O)C1 (stereo unspecified) | > 100 µM (inactive)
53 | O=C(CN1C(=O)/C(=C/c2ccco2)SC1=S)Nc1cccc(C(=O)O)c1 | > 100 µM (inactive)
54 | CCOC(=O)N1CCC(NC(=O)CSc2sc3c(O)cc(=O)[nH]c3c2C#N)CC1 | > 100 µM (inactive)
55 | O=C(NNC(=O)c1cc(O)c(O)c(O)c1)NC1CCCCC1 | 53.5 µM
56 | CCN(C(=O)C(C)N1C(=O)/C(=C/c2ccco2)SC1=S)C1CCS(=O)(=O)C1 (stereo unspecified) | > 100 µM (inactive)
